# Experimental data: PMC9409043, “Serotonin 5-HT6 Receptor Ligands and Butyrylcholinesterase Inhibitors Displaying Antioxidant Activity—Design, Synthesis and Biological Evaluation of Multifunctional Agents against Alzheimer’s Disease” (International Journal of Molecular Sciences, 2022)
# Where “and” joins values, the source holds several entries; their conditions need not be identical. Equal values may be shown once.
# How the values were obtained:
# human 5-HT6 receptor = target: T1, human 5-HT6 receptor (Homo sapiens, UniProt P50406); assay: 5-HT6 receptor radioligand binding assay ([3H]-LSD, CHO-K1 membranes)
# T1 construct: purchased PerkinElmer; host or cells: CHO-K1 cells, stably transfected (membrane preparation)
# T1 sequence (P50406 whole entry): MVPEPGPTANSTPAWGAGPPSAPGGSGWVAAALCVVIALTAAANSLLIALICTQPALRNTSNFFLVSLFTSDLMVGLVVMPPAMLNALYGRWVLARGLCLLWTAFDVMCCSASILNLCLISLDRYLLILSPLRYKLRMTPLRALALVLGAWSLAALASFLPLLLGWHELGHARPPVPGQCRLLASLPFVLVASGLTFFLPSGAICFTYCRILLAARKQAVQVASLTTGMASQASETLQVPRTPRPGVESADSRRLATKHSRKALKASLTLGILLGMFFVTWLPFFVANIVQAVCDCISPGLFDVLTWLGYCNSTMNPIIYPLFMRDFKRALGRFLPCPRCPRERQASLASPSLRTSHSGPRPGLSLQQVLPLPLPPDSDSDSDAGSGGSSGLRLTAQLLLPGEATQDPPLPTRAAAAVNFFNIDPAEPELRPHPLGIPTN
# Protocol: 5-HT6R binding affinity and cholinesterase (AChE/BuChE) inhibitory activity. We evaluated the pharmacological properties of the final compounds 12–19 in vitro according to the previously described, well-established protocols. Their affinities for recombinant human 5-HT6 receptors (h5-HT6R) were tested in a radioligand binding assay and the inhibitory potencies against human recombinant AChE (hAChE) and BuChE isolated from human plasma (hBuChE) in the spectrophotometric Ellman’s assay. […].
# We prepared 10 mM of stock solutions of tested compounds in DMSO. Serial dilutions of compounds were prepared in a 96-well microplate in assay buffers using the automated pipetting system epMotion 5070 (Eppendorf). Each compound was tested in 8 concentrations from 10^−5 to 10^−12 M (final concentration).
# The radioligand binding assay was performed using membranes from CHO-K1 cells stably transfected with the human 5-HT6 receptor (PerkinElmer) according to the previously described procedure. All assays were carried out in duplicates. We prepared 50 µL working solution of the tested compounds, 50 µL [^3H]-LSD (final concentration 2.5 nM) and 150 µL diluted membranes (15 µg protein per well) in assay buffer (50 mM Tris, pH 7.4, 10 mM MgCl2, 0.1 mM EDTA) and transferred them to polypropylene 96-well microplates using a 96-well pipetting station Rainin Liquidator (MettlerToledo). Methiothepin (10 μM) was used to define nonspecific binding. The microplate was covered with sealing tape, mixed and incubated for 60 min at 27 °C. The reaction was terminated by rapid filtration through GF/B filter mate presoaked with 0.5% polyethyleneimine for 30 min. Ten rapid washes with 200 µL 50 mM Tris buffer (4 °C, pH 7.4) were performed using the automated harvester system Harvester-96 MACH III FM (Tomtec). The filter mates were dried at 37 °C in a forced air fan incubator and then solid scintillator MeltiLex was melted on filter mates at 90 °C for 5 min. Radioactivity was counted in MicroBeta2 scintillation counter (PerkinElmer). Data were fitted to a one-site curve-fitting equation with Prism 6 (GraphPad Software) and Ki values were estimated from the Cheng−Prusoff equation.
# [1] = target: T2, human recombinant AChE (hAChE) (Homo sapiens, UniProt P22303); assay: biochemical; conditions: mean ± SEM of at least three experiments
# T2 construct: purchased Sigma-Aldrich (Steinheim, Germany)
# T2 sequence (P22303 32-614): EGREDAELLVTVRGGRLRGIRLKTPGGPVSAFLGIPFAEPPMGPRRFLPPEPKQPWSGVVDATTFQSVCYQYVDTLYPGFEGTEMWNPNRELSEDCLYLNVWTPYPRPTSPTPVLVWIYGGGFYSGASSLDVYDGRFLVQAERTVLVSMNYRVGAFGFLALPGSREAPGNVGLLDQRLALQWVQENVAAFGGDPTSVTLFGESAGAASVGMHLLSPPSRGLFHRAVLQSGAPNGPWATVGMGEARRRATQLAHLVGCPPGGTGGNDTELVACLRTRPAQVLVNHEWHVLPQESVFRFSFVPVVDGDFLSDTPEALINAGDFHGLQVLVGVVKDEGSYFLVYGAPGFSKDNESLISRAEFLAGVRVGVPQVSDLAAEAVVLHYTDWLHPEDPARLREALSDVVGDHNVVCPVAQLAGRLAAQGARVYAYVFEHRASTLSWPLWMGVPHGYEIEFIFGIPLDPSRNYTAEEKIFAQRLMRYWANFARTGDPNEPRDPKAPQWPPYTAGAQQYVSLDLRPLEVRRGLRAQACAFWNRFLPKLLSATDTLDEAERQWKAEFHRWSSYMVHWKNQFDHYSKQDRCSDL
# Protocol: (§1) 5-HT6R binding affinity and cholinesterase (AChE/BuChE) inhibitory activity. […] Their affinities for recombinant human 5-HT6 receptors (h5-HT6R) were tested in a radioligand binding assay and the inhibitory potencies against human recombinant AChE (hAChE) and BuChE isolated from human plasma (hBuChE) in the spectrophotometric Ellman’s assay.
# (§2) The assay was based on spectrophotometric Ellman’s method and was performed in 96-well microplates with the reagents purchased from Sigma-Aldrich (Steinheim, Germany) according to the previously described procedure. hBuChE was kindly donated by Vivonics (Bedford, MA, USA). […] After 5 minutes of the enzymatic reaction, the changes in absorbance were measured at 412 nm, using a microplate reader (SPECTROstar Nano; BMG Labtech, Ortenberg, Germany). First, compounds were tested at the screening concentration of 10 µM. Based on the equation 100 − (S/B) × 100 (where S and B were the respective enzyme activities with and without the test sample, respectively) the percentage inhibition of each enzyme for each compound was calculated. […] The IC50 values were calculated using nonlinear regression (GraphPad Prism 5; GraphPad Software, San Diego, CA, USA) by plotting the residual enzyme activities against the applied inhibitor concentration. […] All experiments were performed in triplicate.
# [2] = target: T3, BuChE isolated from human plasma (hBuChE) (Homo sapiens, UniProt P06276); assay: biochemical; type: biochemical; conditions: for IC50: mean ± SEM of at least three experiments
# T3 construct: BuChE isolated from human plasma (hBuChE); tissue Vivonics (Bedford, MA, USA), donated; host or cells: human plasma
# T3 sequence (P06276 29-602): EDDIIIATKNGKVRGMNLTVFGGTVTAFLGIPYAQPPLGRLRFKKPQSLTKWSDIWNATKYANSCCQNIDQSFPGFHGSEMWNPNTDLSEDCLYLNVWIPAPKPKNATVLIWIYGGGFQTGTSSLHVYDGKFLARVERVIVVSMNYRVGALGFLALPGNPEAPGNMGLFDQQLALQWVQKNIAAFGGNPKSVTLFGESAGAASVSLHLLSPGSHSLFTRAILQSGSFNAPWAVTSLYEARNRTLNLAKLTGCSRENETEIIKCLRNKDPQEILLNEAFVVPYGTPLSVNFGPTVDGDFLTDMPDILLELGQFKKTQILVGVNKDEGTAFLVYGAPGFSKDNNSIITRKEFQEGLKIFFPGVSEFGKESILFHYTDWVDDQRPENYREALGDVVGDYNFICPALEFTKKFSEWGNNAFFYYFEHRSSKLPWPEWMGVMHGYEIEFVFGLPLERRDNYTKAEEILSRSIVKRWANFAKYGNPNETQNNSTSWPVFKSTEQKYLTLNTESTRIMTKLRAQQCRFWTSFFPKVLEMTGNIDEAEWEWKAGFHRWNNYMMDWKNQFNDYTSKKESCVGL
# Protocol: as §1, §2
# [3] = ABTS free radical scavenging assay
# Description: Antioxidant activity. As mentioned before, oxidative stress is one of the components of AD pathomechanism and is characterised by an imbalance in the production of ROS. One of the mechanisms by which antioxidants reduce the concentration of ROS and therefore prevent or slow the cell damage caused by free radicals is scavenging them. Thus, we tested the scavenging ability of compounds 12–19 in the spectrophotometric ABTS assay that we used before. In this assay, the ability of compounds to scavenge ABTS^• radicals, which are generated from 2,2’-azino-bis(3-ethylbenzothiazoline-6-sulphonic acid) (ABTS), is measured. We tested the compounds at three concentrations: 30, 75 and 150 μM after 5, 30 and 60 min of incubation using Trolox, a water-soluble vitamin E analogue, as a reference (Table S1 in Supporting information).
# The spectrophotometric ABTS assay was performed in 96-well microplates with the reagents purchased from Sigma-Aldrich (Steinheim, Germany) according to the previously described procedure. Stock solutions of the tested compounds (6.4 mM) and reagents were prepared in DMSO and water, respectively. 2,2′-Azino-bis(3-ethylbenzothiazoline-6-sulfonic acid) free radical (ABTS^•) was prepared by mixing the stock solution of ABTS (7 mM) and […] (2.45 mM) in ratio 1:1. The mixture was kept in the dark at 4 °C for 16 h. The obtained solution of (ABTS^•) was diluted with water 20 times. Then, the test compound or water or mixture of DMSO/water in the appropriate ratio (0.02 mL) was added to ABTS^• solution (0.18 mL). The three concentrations of the test compounds and Trolox were tested in triplicate: 0.15, 0.075 and 0.03 mM. Changes in absorbance were measured at 734 nm after 5, 30 and 60 min, using a microplate reader (SPECTROstar Nano; BMG Labtech, Ortenberg, Germany). Based on the equation ((A0 − A)/A0) × 100% (where A0 and A were the absorbances without and with the test compound, respectively) the percentage of free radical scavenging activity was calculated. The results are presented as mean ± SD.
SMILES,Ki (human 5-HT6 receptor) [nM],IC50 [1] [nM],fold higher potency against hBuChE than hAChE ([2]; hAChE IC50 vs. hBuChE IC50) [fold],IC50 [2] [nM],"% of ABTS• reduction ± SD ([3]; 30 µM, 5 min) [%]","% of ABTS• reduction ± SD ([3]; 30 µM, 30 min) [%]","% of ABTS• reduction ± SD ([3]; 30 µM, 60 min) [%]","% of ABTS• reduction ± SD ([3]; 75 µM, 5 min) [%]","% of ABTS• reduction ± SD ([3]; 75 µM, 30 min) [%]","% of ABTS• reduction ± SD ([3]; 75 µM, 60 min) [%]","% of ABTS• reduction ± SD ([3]; 150 µM, 5 min) [%]","% of ABTS• reduction ± SD ([3]; 150 µM, 30 min) [%]","% of ABTS• reduction ± SD ([3]; 150 µM, 60 min)"
"O=S(=O)(c1ccccc1)n1ccc2c(OCCNCCCC3CCN(Cc4ccccc4)CC3)cccc21 [Compound 14, 3-(1-Benzylpiperidin-4-yl)-N-(2-((1-(phenylsulfonyl)-1H-indol-4-yl)oxy)ethyl)propan-1-amine]",22 ± 2,930 ± 35,60,16 ± 1,5±3,5±3,6±3,13±1,18±0,21±0,20±0,29±0,35±0% and 35%
"O=S(=O)(c1ccccc1)N1CCc2c(OCCNCC3CCN(Cc4ccccc4)CC3)cccc21 [Compound 15, N-((1-Benzylpiperidin-4-yl)methyl)-2-((1-(phenylsulfonyl)indolin-4-yl)oxy)ethan-1-amine]",267 ± 9,8210 ± 225,–,5410 ± 100,10±0,10±1,11±0,11±1,13±1,15±1,19±1,29±1,36±4%
"O=c1[nH]c2c(OCCNCCC3CCN(Cc4ccccc4)CC3)cccc2n1Cc1ccccc1 [Compound 18, 1-Benzyl-4-(2-((2-(1-benzylpiperidin-4-yl)ethyl)amino)ethoxy)-1,3-dihydro-2H-benzo[d]imidazol-2-one]",142 ± 20,2860 ± 68,–,1160 ± 24,10±1,23±1,27±1,11±1,31±1,36±2,13±0,33±0,40±0%
